Experiments:
MCF7 cell line = test: Antibody validation, immunohistochemistry of treated cells, pCDK1/2/3; format: cell-based, human; conditions: MCF7 cell line treated with samuraciclib
Description: SUPPLEMENTARY TABLE 12: ANTIBODIES USED
Antibody Application Supplier & Description Dilution/ Validation […]
RNA pol II Immunohistoche Abcam Rabbit Immuno- Immunohistochemistry: pSer5 mistry (Fig 3); ab193467 monoclonal histochemistry: Positive nuclear staining Flow cytometry [EPR19015] to 1 in 8000 in normal spleen
(Supplementary RNA 0.02 µg/mL samples. Significant
Figure 5) polymerase II reduction in staining in CTD repeat Flow cytometry: MCF7 cell line treated
YSPTSPS 1 in 100 with samuraciclib. […]
intensity of labelling in […]
pCDK1/2/ Immunohistoche Abcam Rabbit 1 in 500 Immunohistochemistry:
3 mistry (Fig 3) ab201008 monoclonal 1.2 μg/mL Positive nuclear staining [EPR19546] to in normal tonsil samples.
T161) + CDK2 staining in MCF7 cell
(phospho T160) line treated with
Goat anti- Flow cytometry Abcam Polyclonal goat 1 in 1000 Flow cytometry: No Rabbit IgG (Supplementary ab150077 anti-rabbit IgG 2.0 μg/mL significant binding to H&L Figure 5) H&L peripheral blood
AlexaFluor conjugated to mononucleated cells in 488 AlexaFluor 488 absence of primary

Han Wistar rats = conditions: rats 15 or 60 mg/kg/day and beagle dogs 20 mg/kg/day, 7 days; ref IB; cited from earlier work
[1] = tested on: HR+/HER2− advanced breast cancer patients post-CDK4/6 inhibitor; conditions: female, human, in vivo
Description: In each cohort the dose of fulvestrant was 500 mg every 28 ± 2 days, with an additional 500 mg dose given 14 ± 2 days after the first dose. Cohort 1 tested samuraciclib 240 mg OD continuous dosing. If the DLT stopping criteria were not met, Cohort 2 commenced enrollment at the Module 1A MTD. Patients underwent regular safety monitoring and 8-week scans reported using RECIST V1.1[32].
As Module 1A was a ‘first time in human’ safety study, initial efficacy was evaluated as a secondary endpoint using the DCR, defined as the percentage of patients with a complete response (CR), PR or stabilization of disease at first on treatment RECIST assessment. To allow for the evaluation of longer-term benefit, Module 1B-1 and Module 2A used the CBR as a secondary endpoint, defined as the percentage of patients with CR or PR or stabilization of disease for at least 24 weeks between enrollment and disease progression or death due to any cause. In addition, the ORR was assessed, defined as the percentage of patients who had at least 1 objective response (CR or PR) prior to any evidence of progression. […] Statistical analyses of PFS using the Kaplan-Meier method were performed on the ITT population - defined as all enrolled patients. AEs were summarized from the Safety Population - defined as all patients who received at least 1 dose of samuraciclib - using the MedDRA system organ class (SOC), preferred term (PT), and graded according to CTCAE V5.0 (Supplementary Information).
DLTs recorded in the first cycle. Patients were considered evaluable if they completed the first cycle or
discontinued therapy in the first cycle due to a DLT. Patients in a cohort were replaced if they could not
complete the first cycle unless this was due to a DLT.
Part A was planned to have two dose cohorts with up to 6 evaluable patients to be enrolled per
cohort. In each cohort, the dose of fulvestrant was fixed at the standard dose of 500mg given at intervals
of 28±2 days with an additional 500mg dose given 14±2 days after the first dose. Fulvestrant was
administered as two consecutive slow intramuscular (IM) injections (1-2 minutes) of 250mg in 5 mL,
one in each buttock (gluteal area). Pre-and peri-menopausal women also had to have commenced
treatment with a luteinizing hormone-releasing hormone (LHRH) agonist at least 4 weeks prior to first
dose of study medication. Patients continued to receive treatment in 28-day cycles until they no longer
gained clinical benefit or they discontinued treatment.
Cohort 1 tested samuraciclib at 240mg OD as monotherapy, which is approximately 33% lower than the
current maximum tolerated dose (MTD) of 360mg. If no DLT was recorded in Cycle 1 in the first 3
evaluable patients, Cohort 2 commenced enrolment at 360mg of samuraciclib OD.
DLT in Cohort 1, a further 3 evaluable patients were assessed.
started enrolment. If ≥ 2/3 or ≥ 2/6 patients in Cohort 1 experienced a DLT, dose escalation was
stopped. In Cohort 2, if 0/3 or 1/3 evaluable patients experienced a DLT, the cohort was expanded to 6
patients. If ≥ 2/3 or ≥ 2/6 patients experienced a DLT, the Cohort 1 dosing regimen (samuraciclib at
240mg and fulvestrant at 500mg) was determined as the preliminary Phase 2 dosing regimen. If < 2/6
considered the recommended Phase 2 regimen.
The SRC was convened to decide whether and when to open the second samuraciclib dosing cohort and
which dosing regimen to advance to randomized Phase 2 testing. If the SRC considered safety and/or
patients who had at least one response of complete response (CR) or partial response (PR) prior to any
evidence of progression. The percentage change in tumor size was derived at each tumor imaging
assessment by the best percentage change from baseline in the sum of the diameters of target lesions. In
Module 1A initial efficacy was evaluated using the disease control rate (DCR) defined as percentage of
participants with a complete response (CR) or partial response (PR) or stabilization of disease at first on
treatment RECIST assessment.

[2] = parameters: method as in ref IB; conditions: mouse hepatocytes; ref IB; cited from earlier work

## CC(C)c1cnn2c(NCc3ccccc3)cc(NC[C@H]3CCNC[C@@H]3O)nc12 [samuraciclib, Samuraciclib]
MCF7 cell line
  pCDK1/2/3 staining: Significant reduction in
Han Wistar rats
  Reticulocyte numbers: significant decrease
[1]
  Discontinued due to related gastrointestinal AEs: 23%
  Discontinued due to unrelated AEs: 5 patients
  Drug-related: ALT increased: 3 (9.7) patients (%)
  Drug-related: AST increased: 4 (12.9) patients (%)
  Drug-related: Abdominal pain: 7 (22.6) patients (%)
  Drug-related: Abdominal pain (second line so named): 4 (12.9) patients (%)
  Drug-related: Anaemia: 2 (6.5) patients (%)
  Drug-related: Constipation: 2 (6.5) patients (%)
  Drug-related: Decreased appetite: 9 (29.0) patients (%)
  Drug-related: Dehydration: 2 (6.5) patients (%)
  Drug-related: Diarrhoea: 28 (90.3) patients (%)
  Drug-related: Dry mouth: 2 (6.5) patients (%)
  Drug-related: Dry skin: 2 (6.5) patients (%)
  Drug-related: Dysgeusia: 4 (12.9) patients (%)
  Drug-related: Dysphagia: 3 (9.7) patients (%)
  Drug-related: Fatigue: 11 (35.5) patients (%)
  Drug-related: Flatulence: 2 (6.5) patients (%)
  Drug-related: Headache: 4 (12.9) patients (%)
  Drug-related: Mouth ulceration: 2 (6.5) patients (%)
  Drug-related: Mucosal inflammation: 2 (6.5) patients (%)
  Drug-related: Muscular weakness: 2 (6.5) patients (%)
  Drug-related: Nausea: 25 (80.6) patients (%)
  Drug-related: Rash: 3 (9.7) patients (%)
  Drug-related: Stomatitis: 2 (6.5) patients (%)
  Drug-related: Taste disorder: 2 (6.5) patients (%)
  Drug-related: Thrombocytopenia: 3 (9.7) patients (%)
  Drug-related: Vomiting: 23 (74.2) patients (%)
  Drug-related: Weight decreased: 2 (6.5) patients (%)
  Participants with any drug-related TEAE: 30 (96.8) patients (%)
[2]
  Overall turnover: low

Source: article PMC10366102, “Dose escalation and expansion cohorts in patients with advanced breast cancer in a Phase I study of the CDK7-inhibitor samuraciclib” (Nature Communications, 2023)
